Test results as given in US20080280868A1, “Pyridine Derivatives and Their Use as Cb2 Receptor Modulators” (priority 2004, published 2008).
Counter-ions that a name gives are not always drawn. Like-named read-outs stand apart in the source and are kept apart here.

Biological target: T1, human cannabinoid CB2 receptor (Homo sapiens, UniProt P34972)
T1 construct: expressed in transfected cells; host or cells: Saccharomyces cerevisiae strain MMY23 (cassette integrated at the ura3 locus, GPD promoter)
Test: Cannabinoid CB2 receptor agonist activity in yeast cells (FDGlu fluorescence)
Assay type: cell-based
Conditions: for Emax: read-out: efficacy value (Emax) at the cloned human cannabinoid CB2 receptor
Procedure: The cannabinoid CB2 receptor agonist activity of the compounds of formula (I) was determined in accordance with the following experimental method.
Yeast (Saccharomyces cerevisiae) cells expressing the human cannabinoid CB2 receptor were generated by integration of an expression cassette into the ura3 chromosomal locus of yeast strain MMY23. This cassette consisted of DNA sequence encoding the human CB2 receptor flanked by the yeast GPD promoter to the 5′ end of CB2 and a yeast transcriptional terminator sequence to the 3′ end of CB2. MMY23 expresses a yeast/mammalian chimeric G-protein alpha subunit in which the C-terminal 5 amino acids of Gpal are replaced with the C-terminal 5 amino acids of human Gαi3 (as described in Brown et al. (2000), Yeast 16:11-22).
Agonists were prepared as 10 mM stocks in DMSO. […] Agonist solutions in DMSO (1% final assay volume) were transferred into black, clear bottom, microtitre plates from NUNC (96- or 384-well). Cells were suspended at a density of 0.2 OD600/ml in SC media lacking histidine, uracil, tryptophan, adenine and leucine and supplemented with 10 mM 3-aminotriazole, 0.1M sodium phosphate pH 7.0, and […] fluorescein di-β-D-glucopyranoside (FDGlu). […] After incubation at 30° C. for 24 hours, fluorescence resulting from degradation of FDGlu to fluorescein due to exoglucanase, an endogenous yeast enzyme produced during agonist-stimulated cell growth, was determined using a Spectrofluor microtitre plate reader (Tecan; excitation wavelength: 485 nm; emission wavelength: 535 nm). Fluorescence was plotted against compound concentration and iteratively curve fitted using a four parameter fit to generate a concentration effect value. Efficacy (Emax) was calculated from the equation
Equieffective molar ratio (EMR) values were calculated from the equation

[1] = Emax relative to HU210, yeast expressing human CB2
[2] = yeast (Saccharomyces cerevisiae) expressing human CB2, agonist, 30° C. for 24 hours, read-out: EC50 at the cloned human cannabinoid CB2 receptor

T1 sequence (P34972 whole entry): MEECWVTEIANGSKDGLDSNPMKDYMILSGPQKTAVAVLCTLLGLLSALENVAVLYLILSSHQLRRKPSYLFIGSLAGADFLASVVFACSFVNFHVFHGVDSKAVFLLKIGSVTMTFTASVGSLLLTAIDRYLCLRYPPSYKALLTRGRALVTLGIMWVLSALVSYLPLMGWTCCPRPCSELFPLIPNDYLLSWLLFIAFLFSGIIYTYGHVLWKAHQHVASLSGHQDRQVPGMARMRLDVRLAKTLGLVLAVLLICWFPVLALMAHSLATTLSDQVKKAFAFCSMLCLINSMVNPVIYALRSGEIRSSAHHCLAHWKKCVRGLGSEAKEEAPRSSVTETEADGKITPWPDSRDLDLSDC

Emax [1] [%] | EC50 [2] [µM] | SMILES | EC50 [µM] | Emax [%]
> 50 | < 0.3 | Clc1cccc(Nc2cc(C3CC3)c(CNC3CCC3)cn2)c1 [Example 1, (3-Chlorophenyl)-5-(cyclobutylaminomethyW cyclopropyl-pyridin-2-yl)-amine acetate] | – | –
> 50 | < 0.3 | Clc1cccc(Nc2cc(C3CC3)c(CNC3CC3)cn2)c1 [Example 2, (3-Chlorophenyl)-(4-cyclopropyl-5-cyclopropylaminomethyl-pyridin-2-yl)-amineacetate] | – | –
– | – | Clc1cccc(Nc2cc(C3CC3)c(CNCC3CC3)cn2)c1 [Example 3, (3-Chlorophenyl)-(4-cyclopropyl-5-[(cyclopropylmethyl-amino)-methyl]-pyridin-2-yl}-amine acetate] | < 0.3 | > 50
– | – | Clc1cccc(Nc2cc(C3CC3)c(CN3CCOCC3)cn2)c1 [Example 4, (3-Chlorophenyl)-(4-cyclopropyl-5-morpholin-4-ylmethyl-pyridin-2-yl)-aminedihydrochloride] | < 0.3 | > 50
– | – | CC(C)CNCc1cnc(Nc2cccc(Cl)c2)cc1C1CC1 [Example 5, (3-Chlorophenyl)-[4-cyclopropyl-5-(isobutylamino-methyl)-pyridin-2-yl]-amineacetate] | < 0.3 | > 50
– | – | Cc1cccc(Nc2cc(C(C)C)c(CNCC3CCC3)cn2)c1 [Example 12, {5-[(Cyclobutylmethyl-amino)methyl]-4-isopropyl-pyridin-2-yl}-m-tolyl-amine] | 0.3 to 1 | > 50
– | – | Clc1cccc(Nc2cc(C3CC3)c(CNCC3CCC3)cn2)c1 [Example 13, (3-Chloro-phenyl)-{5-[(cyclobutylmethyl-amino)-methyl]-4-cyclopropyl-pyridin-2-yl}-amine] | < 0.3 | > 50
– | – | CC(C)c1cc(Nc2ccc(Cl)cc2Cl)ncc1CNCC1CCC1 [Example 16, {5-[(Cyclobutylmethyl-amino)-methyl]-4-isopropyl-pyridin-2-yl}-(2,4-dichloro-phenyl)-amine,compound with formic acid (1:1)] | < 0.3 | > 50
– | – | CC(C)c1cc(Nc2ccc(Cl)c(Cl)c2)ncc1CNCC1CCC1 [Example 17, {5-[(Cyclobutylmethyl-amino)-methyl]-4-isopropyl-pyridin-2-yl}-(3,4-dichloro-phenyl)-amine,compound with formic acid (1:1.2)] | < 0.3 | > 50
> 50 | < 0.3 | CC(C)c1cc(Nc2ccc(F)c(Cl)c2)ncc1CNCC1CCC1 [Example 18, (3-Chloro-4-fluoro-phenyl)-{5-[(cyclobutyhnethyl-amino)-methyl]-4-isopropyl-pyridin-2-yl}-amine,compound with formic acid (1:1.3)] | – | –
– | – | CC(C)c1cc(Nc2cc(Cl)ccc2Cl)ncc1CNCC1CCC1 [Example 20, {5-[(Cyclobutylmethyl-amino)-methyl]-4-isopropyl-pyridin-2-yl}-(2,5-dichloro-phenyl)-amine,compound with formic acid (1:1)] | < 0.3 | > 50
> 50 | < 0.3 | CC(C)c1cc(Nc2cc(F)cc(F)c2)ncc1CNCC1CCC1 [Example 21, {5-[(Cyclobutylmethyl-amino)-methyl]-4-isopropyl-pyridin-2-yl}-(3,5-difluoro-phenyl)-amine,compound with formic acid (1:1.3)] | – | –
– | – | CC(C)c1cc(Nc2cccc(Cl)c2)ncc1CNCC1CC1 [Example 22, (3-Chloro-phenyl)-{5-[(cyclopropylmethyl-amino)-methyl]-4-isopropyl-pyridin-2-yl}-amine, compound with formic acid(1:1.25)] | < 0.3 | > 50
– | – | CC(C)CNCc1cnc(Nc2ccc(Cl)cc2Cl)cc1C(C)C [Example 23, (2,4-Dichloro-phenyl)-[5-(isobutylamino-methyl)-4-isopropyl-pyridin-2-yl]-amine, compound withformic acid (1:1)] | < 0.3 | > 50
– | – | CC(C)c1cc(Nc2ccc(F)cc2Cl)ncc1CNCC1CCC1 [Example 24, (2-Chloro-4-fluoro-phenyl)-{5-[(cyclobutylmethyl-amino)-methyl]-4-isopropyl-pyridin-2-yl}-amine,compound with formic acid (1:1.75)] | 0.3 to 1 | > 50
> 50 | 0.3 to 1 | CC(C)c1cc(Nc2ccc(Cl)cc2F)ncc1CNCC1CCC1 [Example 25, (4-Chloro-2-fluoro-phenyl)-{5-[(cyclobutylmethyl-amino)-methyl]-4-isopropyl-pyridin-2-yl}-amine,compound with formic acid (1:1.67)] | – | –
– | – | Cc1cc(Cl)ccc1Nc1cc(C(C)C)c(CNCC2CCC2)cn1 [Example 27, (4-Chloro-2-methyl-phenyl)-{5-[(cyclobutylmethyl-amino)-methyl)-4-isopropyl-pyridin-2-yl}-amine,compound with formic acid (1:1.33)] | 0.3 to 1 | > 50
> 50 | 0.3 to 1 | Cc1c(Cl)cccc1Nc1cc(C2CC2)c(CNCC2CCC2)cn1 [Example 29, (3-Chloro-2-methyl-phenyl)-{5-[(cyclobutylmethyl-amino)-methyl]-4-cyclopropyl-pyridin-2-yl}-amine,compound with formic acid (1:1.57)] | – | –
– | – | CC(C)c1cc(Nc2cccc(C(F)(F)F)c2)ncc1CNCC1CC1 [Example 30, {5-[(Cyclopropylmethyl-amino)-methyl]-4-isopropyl-pyridin-2-yl}-(3-trifluoromethyl-phenyl)-amine,compound with formic acid (1:1)] | 0.3 to 1 | > 50
– | – | Cc1ccc(Nc2cc(C(C)C)c(CNCC3CC3)cn2)cc1Cl [Example 33, (3-Chloro-4-methyl-phenyl)-{5-[(cyclopropylmethyl-amino)-methyl]-4-isopropyl-pyridin-2-yl}-amine, compound with formic acid(1:1)] | 0.3 to 1 | > 50
– | – | CC(C)c1cc(Nc2ccc(F)c(F)c2)ncc1CNCC1CC1 [Example 37, {5-[(Cyclopropylmethyl-amino)-methyl]-4-isopropyl-pyridin-2-yl}-(3,4-difluoro-phenyl)-amine,compound with formic acid (1:1.15)] | 0.3 to 1 | > 50
> 50 | < 0.3 | Fc1ccc(Nc2cc(C3CC3)c(CNCC3CCCC3)cn2)cc1Cl [Example 44, (3-Chloro-4-fluoro-phenyl)-{5-[(cyclopentylmethyl-amino)-methyl]-4-cyclopropyl-pyridin-2-yl}-amine, compound with formicacid (1:1.4)] | – | –
> 50 | < 0.3 | CC(C)CNCc1cnc(Nc2cccc(C(F)(F)F)c2F)cc1C(C)C [Example 46, (2-Fluoro-3-trifluoromethyl-phenyl)-5-[(isobutylamino-methyl)-4-isopropyl-pyridin-2-yl]-amine,compound with formic acid (1:1.13)] | – | –
– | – | CC(C)CNCc1cnc(Nc2ccc(Cl)c(Cl)c2)cc1C(C)C [Example 47, (3,4-Dichloro-phenyl)-[5-(isobutylamino-methyl)-4-isopropyl-pyridin-2-yl]-amine, compound withformic acid (1:1)] | < 0.3 | > 50
> 50 | < 0.3 | CC(C)CNCc1cnc(Nc2cccc(Br)c2)cc1C(C)C [Example 48, (3-Bromo-phenyl)-[5-(isobutylamino-methyl)-4-isopropyl-pyridin-2-yl]-amine, compound withformic acid (1:33)] | – | –

SMILES | Emax [1] [%] | EC50 [2] [µM] | EC50 [µM] | Emax [%]
Clc1cccc(Nc2cc(C3CC3)c(CNC3CCOCC3)cn2)c1 [Example 11, (3-Chlorophenyl)-{4-cyclopropyl-5-[(tetrahydro-pyran-4-ylamino)-methyl]-pyridin-2-yl}-amineacetate] | – | 0.3 to 1 | – | > 50
CC(C)c1cc(Nc2ccc(OC(F)(F)F)cc2Br)ncc1CNCC1CCC1 [Example 26, (2-Bromo-4-trifluoromethoxy-phenyl)-{5-[(cyclobutylmethyl-amino)-methyl]-4-isopropyl-pyridin-2-yl}-amine, compound with formicacid (1:1)] | – | 0.3 to 1 | – | > 50
CC(C)c1cc(Nc2cc(F)cc(F)c2)ncc1CNCC1CC1 [Example 31, {5-[(Cyclopropylmethyl-amino)-methyl]-4-isopropyl-pyridin-2-yl}-(3,5-difluoro-phenyl)-amine,compound with formic acid (1:1)] | – | 0.3 to 1 | – | > 50
CC(C)c1cc(Nc2ccc(F)c(Cl)c2)ncc1CNCC1CC1 [Example 34, (3-Chloro-4-fluoro-phenyl)-{5-[(cyclopropylmethyl-amino)-methyl]-4-isopropyl-pyridin-2-yl}-amine, compound with formic acid(1:1)] | – | 0.3 to 1 | – | > 50
